Experiments:
Test in all cases: relative viability (nuclei count vs DMSO), 5 days (fraction); higher = more cells survive
[1] = compound: C1=CC=C(C(=C1)C2=CC=C(C=C2)C3=CSC4=C3C(=C(C(=O)N4)C#N)O)O + CCNC(=O)c1noc(-c2cc(C(C)C)c(O)cc2O)c1-c1ccc(CN2CCOCC2)cc1 [Luminespib] (partner 0.01 µM)
Summary of the method: (§1)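 Relative viability divides the nuclei count in treated wells by that in vehicle wells. Lung cancer cell lines were seeded in 1536-well plates, dosed by pin tool the next day, and fixed and stained after 5 days in one step with final 0.05% Triton X-100, 1% formaldehyde and 1 ug/ml Hoechst. Dosing was a single drug or a fixed anchor-drug dose plus five library-drug doses (not always all listed) in √10 steps, and values are medians of duplicate plates imaged at 4×.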

TGX 221 + Vorinostat = compound: CC1=CN2C(=O)C=C(N=C2C(=C1)C(C)NC3=CC=CC=C3)N4CCOCC4 [TGX 221] + O=C(CCCCCCC(=O)Nc1ccccc1)NO [Vorinostat] (partner 1 µM)
Summary of the method: as §1

[2] = compound: O=C(CCCCCCNC(=O)c1cnc(N(c2ccccc2)c2ccccc2)nc1)NO [Ricolinostat] + CS(=O)(=O)N1CCN(Cc2cc3nc(-c4cccc5[nH]ncc45)nc(N4CCOCC4)c3s2)CC1 [Pictilisib] (partner 1 µM)
Summary of the method: as §1

[3] = compound: O=C(CCCCCCNC(=O)c1cnc(N(c2ccccc2)c2ccccc2)nc1)NO [Ricolinostat] + O=C(CCCCCCC(=O)Nc1ccccc1)NO [Vorinostat] (partner 1 µM)
Summary of the method: as §1

Cell Line	relative viability ([1]; first compound 0.08 µM)	relative viability ([1]; first compound 0.253 µM)	relative viability ([1]; first compound 0.8 µM)	relative viability ([1]; first compound 2.53 µM)	relative viability ([1]; first compound 8 µM)	relative viability (TGX 221 + Vorinostat; first compound 0.08 µM)	relative viability (TGX 221 + Vorinostat; first compound 0.253 µM)	relative viability (TGX 221 + Vorinostat; first compound 0.8 µM)	relative viability (TGX 221 + Vorinostat; first compound 2.53 µM)	relative viability (TGX 221 + Vorinostat; first compound 8 µM)	relative viability ([2]; first compound 0.08 µM)	relative viability ([2]; first compound 0.253 µM)	relative viability ([2]; first compound 0.8 µM)	relative viability ([2]; first compound 2.53 µM)	relative viability ([3]; first compound 0.08 µM)	relative viability ([3]; first compound 0.253 µM)	relative viability ([3]; first compound 0.8 µM)	relative viability ([3]; first compound 2.53 µM)
EMC-BAC-2	0.953	1.25	1.25	1.26	1.18	0.414	0.461	0.426	0.493	0.424	0.433	0.578	0.558	0.442	0.398	0.417	0.25	0.293
NCI-H2023	0.59	0.752	0.767	0.956	0.643	0.552	0.701	0.759	0.495	0.502	0.162	0.277	0.183	0.185	0.511	0.544	0.47	0.369
NCI-H1993	0.625	0.715	0.7	0.763	0.646	0.821	0.611	0.742	0.788	0.724	0.645	0.889	0.882	0.239	0.551	0.825	0.693	
COR-L 105	0.881	0.821	0.722	0.625	0.752	0.906	0.884	0.869	0.726	0.82	0.367	0.412	0.485	0.279	0.794	0.825	0.643	0.7
NCI-H596	0.696	0.941	0.943	1.15	0.904	0.571	0.588	0.685	0.494	0.524	0.399	0.399	0.378	0.335	0.61	0.645	0.567	0.432
LK-2		0.192	0.193	0.184	0.191	0.356	0.309	0.249	0.415	0.505		0.497	0.48	0.483	0.393	0.311	0.261	0.192
NCI-H650	0.778	0.898	0.67	0.902	0.78	0.425	0.488	0.459	0.542	0.401		0.766	0.77	0.506	0.355	0.434	0.367	0.296
NCI-H520	0.261	0.225	0.218	0.246	0.21	0.599	0.564	0.627	0.493	0.53		0.218	0.272	0.23		0.659	0.629	0.532
ABC-1	0.509	0.768	0.78	0.481	0.513	1.2	0.753	0.996	0.981	1.29	0.541	0.731	0.606	0.446	1.02	1.06	0.749	0.762
NCI-H322M	0.792	0.808	0.881	0.911	0.758	0.865	0.876	0.839	0.872	0.718		0.558	0.561	0.568	0.621	0.834	0.827	0.804
NCI-H1395	0.933	0.683	0.658	0.641	0.5	0.601	0.537	0.553	0.557	0.664		0.636	0.511	0.597		0.833	0.468	0.674
NCI-H2228	0.14	0.163	0.105	0.135	0.186	0.462	0.324	0.599	0.575	0.302	0.309	0.407	0.355	0.24	0.896	0.647	0.605	0.64
NCI-H2009	0.962	1.02	1.11	1.03	1.02	0.731	0.687	0.72	0.819	0.559	0.498	0.829	0.757	0.85	0.614	0.68	0.711	0.53
LXF-289	0.764	0.651	0.8	0.73	0.632	0.77	0.757	0.732	0.714	0.771	0.702	0.809	0.804	0.554	0.697	0.723	0.681	0.483
NCI-H1975	0.174	0.248	0.161	0.253	0.161	0.749	0.656	0.689	0.718	0.607	0.283	0.309		0.231	0.655	0.671	0.566	0.609
NCI-H2347	0.354	0.404	0.405	0.37	0.492	0.745	0.506	0.478	0.618	0.465	0.451	0.628	0.884	0.644	0.449	0.567	0.55	0.469
RERF-LC-KJ	1.34	1.37	1.44	1.17	0.843	0.684	0.708	0.678	0.69	0.678	0.755	0.637	0.422	0.467	0.583	0.657	0.639	0.434
BEN	0.354	0.345	0.305	0.71	0.331	0.588	0.572	0.523	0.501	0.547	0.462	0.532	0.425	0.354	0.517	0.543	0.592	0.498
NCI-H358	0.304	0.331	0.293	0.603	0.221	0.746	0.663	0.71	0.668	0.602	0.213	0.495	0.463	0.539	0.599	0.633	0.482	0.34

Cell Line	relative viability ([1]; first compound 0.08 µM)	relative viability ([1]; first compound 0.253 µM)	relative viability ([1]; first compound 0.8 µM)	relative viability ([1]; first compound 2.53 µM)	relative viability ([1]; first compound 8 µM)	relative viability (TGX 221 + Vorinostat; first compound 0.08 µM)	relative viability (TGX 221 + Vorinostat; first compound 0.253 µM)	relative viability (TGX 221 + Vorinostat; first compound 0.8 µM)	relative viability (TGX 221 + Vorinostat; first compound 2.53 µM)	relative viability (TGX 221 + Vorinostat; first compound 8 µM)	relative viability ([2]; first compound 0.08 µM)	relative viability ([2]; first compound 0.253 µM)	relative viability ([2]; first compound 0.8 µM)	relative viability ([2]; first compound 2.53 µM)	relative viability ([3]; first compound 0.08 µM)	relative viability ([3]; first compound 0.253 µM)	relative viability ([3]; first compound 0.8 µM)	relative viability ([3]; first compound 2.53 µM)
NCI-H1944	0.839	0.736	0.752	0.777	0.724		0.547	0.488	0.476	0.488	0.285	0.347	0.321	0.289	0.493	0.539	0.488	0.422
201T	0.873	0.981	1.03	1.09	1.08	1	0.956	0.902	0.927	0.879	0.586	0.748	0.727	0.606	0.818	0.951	0.959	0.843
NCI-H647	0.183	0.0923	0.19	0.245	0.209	0.466	0.442	0.457	0.547	0.665		0.42	0.415	0.456	0.562	0.464	0.52	0.441
NCI-H441	0.344	0.352	0.269	0.308	0.344	0.717	0.785	0.724	0.856	0.859	0.42	0.55	0.426	0.453	0.735	0.76	0.643	0.54
PC-3 [JPC-3]	0.564	0.774	0.787	0.679	0.74	0.719	0.715	0.839	0.655	0.881	0.669	0.808	0.673	0.456	0.505	0.854	0.448	0.669
NCI-H2126	0.894	0.895	0.89	0.948	0.928	0.832	0.741	0.768	0.615	0.717	0.393	0.497	0.459	0.383	0.456	0.796	0.684	0.485
HCC-15	0.277	0.289	0.297	0.38	0.3	0.753	0.787	0.977	0.839	0.787	0.647	0.79	0.779	0.617	0.768	0.746	0.691	0.618
NCI-H2085	0.403	0.475	0.479	0.499	0.416	0.86	0.667	0.562	0.416	0.436		0.447	0.431	0.416		0.751	0.731	0.631
LOU-NH91	0.439	0.41	0.304	0.364	0.33	0.888	0.963	0.957	0.902	0.9		0.557	0.492	0.528		0.955	0.782	0.755
NCI-H3122	0.106	0.0689	0.0946	0.105	0.0854	1.02	0.823	1.08	0.969	1.04	0.533	0.606	0.696	0.866	0.966	0.848	0.853	0.708
HOP-62	0.925	0.892	0.876	1.05	0.762	0.57	0.581	0.667	0.521	0.542	0.624	0.749	0.624	0.33	0.572	0.537	0.478	0.292
LCLC-103H	0.87	0.98	1.06	0.929	1.06	0.761	0.806	0.708	0.647	0.766	0.456	0.47	0.583	0.547	0.662	0.738	0.639	0.522
LU99A	0.245	0.234	0.295	0.261	0.242	0.431	0.514	0.588	0.356	0.529	0.299	0.262	0.258	0.219	0.513	0.473	0.462	0.326
HCC-44		1.55	0.993	1.12	0.822	1.12	1.22	1.17	1.17	1.21	0.551	0.673	0.635	0.424	1.16	0.99	1.06	1.06
NCI-H2405	0.723	0.855	0.675	0.604	0.567	0.87	0.928	0.941	0.92	0.895	0.389	0.494	0.412	0.277	0.854	1.02	0.379	0.767
PC-14		0.185	0.105	0.162	0.142	0.682	0.626	0.687	0.748	0.662	0.536	0.681	0.653	0.321	0.576	0.691	0.593	0.396
COR-L23	0.524	0.745	0.714	0.773	0.52	0.425	0.409	0.436	0.469	0.336	0.576	0.737	0.697	0.326	0.406	0.383	0.388	0.297
NCI-H1666	0.942	1.05	0.949	1.01	1.01	0.958	0.963	1.06	1.06	1.1	0.445	0.52	0.378	0.305	0.933	1.01	1.01	0.847
